Laboratory results from patent publication US20090012014A1, “Compound, Composition and a Process Thereof” (INDUS BIOTECH PVT. LTD, priority 2007, published 2009).
Several values for one entry are separate records, joined by “and”; a condition that tells them apart may be missing. Equal entries are not always repeated. Where two headings read alike, the source gives them in different places. Marks after values point to notes of the source that are not given here.

Experiments:
Cotton pellet Granuloma = assay: Sub acute study: cotton pellet granuloma; format: in vivo, Swiss Wistar rats; details: dried pellet weight after 7 days
Method: This evaluates inflammation over a period of 7 days. This is done by classical animal model (in Swiss Wistar tats) of cotton pallet granuloma. Celecoxib is a positive control for comparison of the efficacy of Test Compound.
100 mg per kg is the optimal dose. A comparison is made with Celecoxib.

[1] = test system: paw edema in Carrageenan model; assay: Acute study: Carrageenan induced paw edema; format: in vivo, Swiss Wistar rats; details: paw volume at 3 hrs
Method: These tests are for the inhibition of inflammation caused by prostaglandins in short period of time. This can be tested in animal (Swiss Wistar rats) as per well known protocols which are treated with Carrageenan. This model tests out anti-inflammatory activity caused by prostaglandin inhibition. Celecoxib is given as a positive control to do a comparison and evaluate the efficacy of anti-inflammatory purified extract as described above in Prostaglandin inhibition in 3 hrs.
Paw Volume measured is compared with Control group and standard drug, celecoxib. Paw volume initial to the paw volume at 1 h, 2 h, 3 h is measured and peak inhibition, which is at 3 hrs is noted down. In this model efficacy as well as dosage of drug is arrived by considering peak % inhibition. […] This is also not statistically significant.

gastric mucosa = assay: Gastric ulcerogenic effects after repeated oral administration; format: in vivo, male Swiss Wistar rats; details: for Mean score of Lesion intensity: 7 consecutive days
Description: Gastric ulcerogenic effects of Test compound and celecoxib after repeated oral administration for 7 consecutive days to the male Swiss Wistar rats.
In the control group, structure of the gastric mucosa appears normal.

TNF-α = TNF-α level in serum of FCA induced arthritic rat; format: in vivo
Method: (§1) This activity mimics the onset of autoimmune damage to joints and tests the efficiency of drug against this damage. Leflunamide is taken as positive control. Here Swiss Wistar rats are treated with Freunds Complete Adjuvant (CFA) to induce chronic inflammation symptoms similar to rheumatis diseases. The symptoms appear by 13th day. The drug treatment is started from 13th day to 23rd day for 10 days.
Effect of Test compound and standard drug Celecoxib on TNF-α level in FCA induced arthritis rat. The serum from the FCA induced arthritic rat was examined for Tumor necrosis factor alpha. The experimental protocol was same as example no.

FCA induced arthritis = assay: Chronic study: FCA (Freunds Complete Adjuvant) induced arthritis; format: in vivo, Swiss Wistar rats; details: for Anti-inflammatory activity (% Inhibition) in FCA induced arthritis Day 18: treatment from 13th day
Method: as §1
In addition, a disseminated arthritic reaction (secondary response) developed from […] alter FCA injection. The swelling was observed both in the injected paw and in the non-injected contra lateral paw. The reduction of the planter volume was statistically significant for both hind legs. The test compound gave a very impressive reduction of 52% at 100 mg per kg dose which is statistically significant. This compared very well with DMARD drug Leflunomide. However, Leflunomide is highly nephrotoxic and cannot be administered for a long time.

C-reactive protein = C-reactive protein test (CRP test kit) in FCA arthritis model; format: in vivo, Swiss Wistar rats; details: for C-reactive protein After 10 Day Treatment / C-reactive protein Before Treatment: CRP test kit, precipitate
Method: This activity mimics the onset of autoimmune damage to joints and tests the efficiency of drug against this damage. Leflunamide is taken as positive control. Here Swiss Wistar rats are treated with Freunds Complete Adjuvant (CFA) to induce chronic inflammation symptoms similar to rheumatis diseases. The symptoms appear by 13th day. The drug treatment is started from 13th day to 23rd day for 10 days. […] In this method the CRP test kit ([…], Dreadnought Trading Estate Bridgeport Dorset DT6 5BU UK) was used for the measurement of CRP. The results are expressed either […] or -ve depending on the formation of precipitate Normal range of CRP: up to 6 mg/L. Below this level is considered to be negative.

[2] = test system: patients with rheumatoid arthritis
[3] = male, Swiss Wistar, rat, in vivo, po, 5 mg/kg, 7 days
[4] = out of the total 70 patients recruited

Cc1ccc(-c2cc(C(F)(F)F)nn2-c2ccc(S(N)(=O)=O)cc2)cc1 [Celecoxib, reference compound]
Anti-inflammatory activity (% Inhibition) in Cotton pellet Granuloma (Cotton pellet Granuloma; Dose 10 mg/kg): 43.2** %
Anti-inflammatory activity (% Inhibition) in Carrageenan model In 3 Hrs. ([1]; Dose 10 mg/kg): 45.2** %
Mean score of Lesion intensity (gastric mucosa; Dose 5 mg/kg p.o.): 1.6
Average of no. of ulcer per animal (gastric mucosa; [3]): 2
No. of animals with ulcer (gastric mucosa; [3]): 2
No. of animals with ulcer (%) (gastric mucosa; [3]): 33.3%
Ulcer Index (UI) (gastric mucosa; [3]): 3.7
Concentration of TNF-α in pg/mL Day 0 (TNF-α): 28.9 pg/mL
Concentration of TNF-α in pg/mL Day 13 (TNF-α): 47.9 pg/mL
Concentration of TNF-α in pg/mL Day 21 (TNF-α; Day 21): 33.6 pg/mL

Cc1oncc1C(=O)Nc1ccc(C(F)(F)F)cc1 [Leflunamide, reference compound]
Anti-inflammatory activity (% Inhibition) in FCA induced arthritis Day 18 (FCA induced arthritis; Dose 10 mg/kg): 35.22* %
Anti-inflammatory activity (% Inhibition) in FCA induced arthritis Day 23 (FCA induced arthritis; Dose 10 mg/kg, treatment 13th to 23rd day): 76.55** %
C-reactive protein After 10 Day Treatment (C-reactive protein): Negative (Normal range of CRP: up to 6 mg/L. Below this level is considered to be negative)
C-reactive protein Before Treatment (C-reactive protein): Negative (Normal range of CRP: up to 6 mg/L. Below this level is considered to be negative)

CC(COC1OC(CO)C(O)C(O)C1O)C(C)CC1(O)CC2CC3C4CC=C5CC(OC6OC(CO)C(O)C(O)C6OC6OC(C)C(O)C(O)C6O)CCC5(C)C4CCC3(C)C2C1C (stereo not shown) [Test compound]
Anti-inflammatory activity (% Inhibition) in Cotton pellet Granuloma (Cotton pellet Granuloma; Dose 50 mg/kg): 24.2* %
Anti-inflammatory activity (% Inhibition) in Cotton pellet Granuloma (Cotton pellet Granuloma; Dose 100 mg/kg, 100 mg/kg): 33.2* %
Anti-inflammatory activity (% Inhibition) in Cotton pellet Granuloma (Cotton pellet Granuloma; Dose 100 mg/kg, listed as test compound, 100 mg/kg): 32.3%
Anti-inflammatory activity (% Inhibition) in Cotton pellet Granuloma (Cotton pellet Granuloma; Dose 200 mg/kg): 39.4** %
Anti-inflammatory activity (% Inhibition) in Carrageenan model In 3 Hrs. ([1]; Dose 50 mg/kg): 26.49* %
Anti-inflammatory activity (% Inhibition) in Carrageenan model In 3 Hrs. ([1]; Dose 100 mg/kg): 32.54* %
Anti-inflammatory activity (% Inhibition) in Carrageenan model In 3 Hrs. ([1]; Dose 100 mg/kg, listed as test compound): 32.44%
Anti-inflammatory activity (% Inhibition) in Carrageenan model In 3 Hrs. ([1]; Dose 200 mg/kg): 34.44* %
Anti-inflammatory activity (% Inhibition) in FCA induced arthritis Day 18 (FCA induced arthritis; Dose 50 mg/kg): 18.04%
Anti-inflammatory activity (% Inhibition) in FCA induced arthritis Day 23 (FCA induced arthritis; Dose 50 mg/kg, treatment 13th to 23rd day): 29.07* %
Anti-inflammatory activity (% Inhibition) in FCA induced arthritis Day 18 (FCA induced arthritis; Dose 100 mg/kg): 32.38%
Anti-inflammatory activity (% Inhibition) in FCA induced arthritis Day 23 (FCA induced arthritis; Dose 100 mg/kg, treatment 13th to 23rd day (text values print no day), 100 mg/kg): 52.81* %
Anti-inflammatory activity (% Inhibition) in FCA induced arthritis Day 23 (FCA induced arthritis; Dose 100 mg/kg, treatment 13th to 23rd day (text values print no day), listed as test compound, 100 mg/kg): 52% and 56%
Anti-inflammatory activity (% Inhibition) in FCA induced arthritis Day 18 (FCA induced arthritis; Dose 200 mg/kg): 25.41%
Anti-inflammatory activity (% Inhibition) in FCA induced arthritis Day 23 (FCA induced arthritis; Dose 200 mg/kg, treatment 13th to 23rd day): 56.55* %
C-reactive protein After 10 Day Treatment (C-reactive protein): Negative (Normal range of CRP: up to 6 mg/L. Below this level is considered to be negative)
C-reactive protein Before Treatment (C-reactive protein): Negative (Normal range of CRP: up to 6 mg/L. Below this level is considered to be negative)
C-reactive protein in FCA chronic arthritis model (in words) (C-reactive protein; after treatment): decrease in C-reactive protein
HAQ (Health Assessment Questionnaire) 12 mths (mean) ([2]; 12 months): 4.4
JCSW (Joint count swelling) 12 mths (mean) ([2]; 12 months): 1.6
JCPT (Joint Count Pain/Tenders) 12 mths (mean) ([2]; 12 months, 16 mg per kg body weight): 5.5
CRP (C Reactive Protein), nephlometry, over time ([2]; 12 months, FIG. 2, listed as test compound): reduction
RF (Rheumatoid factor) Titre, nephlometry, over time ([2]; 12 months, FIG. 3, listed as test compound): reduction
ESR 12 mths (mean) ([2]; 12 months, Westergren): 66
painVAS (pain visual analogue scale) 12 mths (mean) ([2]; 12 months, scale 0-10 cms): 3.6
patGlobal (patient global assessment) 12 mths (mean) ([2]; 12 months, scale 0-10 cms): 3.4
phyGlobal (physician global assessment) 12 mths (mean) ([2]; 12 months, scale 0-10 cms): 2.6
HAQ (Health Assessment Questionnaire) Baseline (mean) ([2]; Baseline): 8.8
HDL BASELINE ([2]; Baseline): 44.6
LDL BASELINE ([2]; Baseline): 117.08
HDL/LDL BASELINE ([2]; Baseline ratio): 0.41
JCSW (Joint count swelling) Baseline (mean) ([2]; Baseline, 66 joints): 9.5
JCPT (Joint Count Pain/Tenders) Baseline (mean) ([2]; Baseline, 68 joints, 16 mg per kg body weight): 24.3
ESR Baseline (mean) ([2]; Baseline, Westergren): 61.4
painVAS (pain visual analogue scale) Baseline (mean) ([2]; Baseline, scale 0-10 cms): 6.6
patGlobal (patient global assessment) Baseline (mean) ([2]; Baseline, scale 0-10 cms): 6.4
phyGlobal (physician global assessment) Baseline (mean) ([2]; Baseline, scale 0-10 cms): 5.7
Patients in Clinical Remission: Duration (Months) ([2]; Patient No. 019): 8 Months
Patients in Clinical Remission: Duration (Months) ([2]; Patient No. 035*, ACR remission, ESR <30 mm): 3 Months
Patients in Clinical Remission: Duration (Months) ([2]; Patient No. 037*, ACR remission, ESR <30 mm): 3 Months
Patients in Clinical Remission: Duration (Months) ([2]; Patient No. 038*, ACR remission, ESR <30 mm): 3 Months
Patients in Clinical Remission: Duration (Months) ([2]; Patient No. 049): 5 Months
Patients in Clinical Remission: Duration (Months) ([2]; Patient No. 051): 2 Months
Patients in Clinical Remission: Duration (Months) ([2]; Patient No. 054*, ACR remission, ESR <30 mm): 3 Months
Patients in Clinical Remission: Duration (Months) ([2]; Patient No. 057): 6 Months
Patients in Clinical Remission: Duration (Months) ([2]; Patient No. 059): 5 Months
Patients in Clinical Remission: Duration (Months) ([2]; Patient No. 112*, ACR remission, ESR <30 mm): 7 Months
Serum albumin ([2]; at 12 months, printed 95% CI—0.35, −2.90, listed as test compound): significant improvements
Blood Urea Nitrogen ([2]; at 12 months, printed (95%) CI 1.2, 35, listed as test compound): significant improvements
ESR Mean change ([2]; baseline to 12 months): −3.05
Adverse alterations in routine haematology, biochemistry (renal and hepatic) and metabolic parameters ([2]; human, in vivo): no significant adverse alterations
HDL/LDL ratio of rheumatic patients after treatment ([2]; human, in vivo): 0.45
Laboratory values for SGOT, SGTP, GGT, Serum bilirubin and Serum creatinine ([2]; human, in vivo): No significant changes
Side-effects recorded ([2]; human, in vivo): Minor side-effects
HDL MEAN CHANGE ([2]; mean change from baseline): −1.57
HDL/LDL MEAN CHANGE ([2]; mean change from baseline): −6.1
LDL MEAN CHANGE ([2]; mean change from baseline): 12.7
ACR 50 improvement response (patients responding) ([2]; one year study): 40%
Patients who satisfied the ACR criteria for remission that also includes the ESR response ([2]; one year study): 5 patients
ACR 20 improvement response (patients responding) ([2]; one year study, 20% improvement in ACR factors): 80%
All clinical efficacy measures (ACR core set), overall result in words ([2]; one year study, P<0.05, listed as test compound): significant disease modifying anti-arthritic action
Patients completely asymptomatic as per ACR core set clinical measures (percent) [2, 4]: 11.9%
Patients completely asymptomatic as per ACR core set clinical measures / remission of disease [2, 4]: 10 patients
Mean score of Lesion intensity (gastric mucosa; Dose 200 mg/kg p.o.): Nil
Average of no. of ulcer per animal (gastric mucosa; rat, in vivo, po, 200 mg/kg): Nil
No. of animals with ulcer (%) (gastric mucosa; rat, in vivo, po, 200 mg/kg): Nil
Ulcer Index (UI) (gastric mucosa; rat, in vivo, po, 200 mg/kg): Nil
Concentration of TNF-α in pg/mL Day 0 (TNF-α): 36.8 pg/mL
Concentration of TNF-α in pg/mL Day 13 (TNF-α): 45.3 pg/mL
Concentration of TNF-α in pg/mL Day 21 (TNF-α; Day 21): 36.1 pg/mL
Concentration of TNF-α in pg/mL Day 21 (TNF-α; Day 21, listed as experimental drug): inhibits TNF-α
